Reference: patent US11186588B2 (AYUMI PHARMACEUTICAL CORPORATION, priority 2017, dated 2021)
pIC50: −log10 of the molar value.

Legend:
[1] = biological target: Recombinant BRD4 (44-168) protein (Homo sapiens (Human), UniProt O60885); experiment: BRD4-H4KAc4 binding assay (amplified luminescence proximity homogeneous assay, AlphaScreen); conditions: 10 uM
Summary of the method: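 His/FLAG-tagged BRD4 (44-168) and biotinylated tetra-acetylated H4 peptide, each added as 250 nM solutions, incubated with compound 60 min at room temperature in the dark, then AlphaScreen beads 60 min. Emission 520-620 nm at 680 nm excitation, duplicates; % inhibition from blank- and DMSO-corrected signal.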

NF-κB = NF-κB reporter gene assay (TNF-α stimulated A549/NF-κB-luc cells); type: cell-based; conditions: Homo sapiens, TNF-α stimulation
Method: In order to evaluate NF-κB inhibitory activity of the present compounds, NF-κB reporter gene assay was carried out. The specific method is described below.
Gene recombinant human TNF-α (available from R&D systems, Cat No. 210-TA) was dissolved in D-PBS(−) (available from Wako Pure Chemical Industries, Ltd., Cat No. 293-72601) to prepare 100 μg/mL of TNF-α solution stock solution. 100 μg/mL of the TNF-α solution stock solution was diluted with the culture medium to prepare 10 ng/mL of TNF-α solution.
A549/NF-κB-luc cells (available from Panomics, Cat No. LR0051) were prepared at 375,000 cells/mL in the culture medium. The 375,000 cells/mL A549/NF-κB-luc cell suspension was seeded at 80 μL each on a white 96-well plate (available from Greiner, Cat No. 655073). One hour after seeding the cells, 10 μL of 2% DMSO solution (control) and each compound solution in each concentration were added to each well of the 96-well plate. One hour after the addition of each compound solution, 10 ng/mL of the TNF-α solution (10 μL) was added to each well of the 96-well plate. Three hours after the addition of 10 ng/mL of the TNF-α solution, 100 μL of Steady-Glo reagent (available from Promega, Cat No. E2510) was added to each well of the 96-well plate. After 30 to 90 minutes of the addition of the Steady-Glo reagent, the luminescence intensity of each well was detected by EnVision multilabel counter (available from PerkinElmer).
NF-κB inhibition rate (%) was calculated by the following equation using Microsoft EXCEL 2010. NF-κB inhibition rate (%)=100−{(luminescence intensity average value of each compound added well)−(average value of luminescence intensity of blank well))/(average value of luminescence intensity of control well)−(average value of luminescence intensity of blank well)}×100 In addition, IC50 values were calculated from the calculated NF-κB inhibition rate (%) using curve fitting software XLfit (available from IDBS).

## Cc1sc2c(c1C)C(c1ccc(Cl)cc1)=NN(Cc1cc(F)cnc1F)c1nnc(C)n1-2 [Example 88, 4-(4-chlorophenyl)-6-((2,5-difluoropyridin-3-yl)methyl)-2,3,9-trimethyl-6H-thieno[2,3-e][1,2,4]triazolo[3,4-c][1,2,4]triazepine]
[1]
  inhibition at 10 µM: 100%
NF-κB
  pIC50: 6.20

## Cc1nnc2n1-c1sccc1C(c1ccc(Cl)cc1)=NN2Cc1ccccc1 [Example 60, 6-benzyl-4-(4-chlorophenyl)-9-methyl-6H-thieno[2,3-e][1,2,4]triazolo[3,4-c][1,2,4]triaz epine]
[1]
  inhibition at 10 µM: 100%
NF-κB
  pIC50: 5.77

## Cc1sc2c(c1C)C(c1ccc(Cl)cc1)=NN(Cc1ncccc1Cl)c1nnc(C)n1-2 [Example 24, 4-(4-chlorophenyl)-6-((3-chloropyridin-2-yl)methyl)-2,3,9-trimethyl-6H-thieno[2,3-e][1,2,4]triazolo[3,4-c][1,2,4]triazepine]
[1]
  inhibition at 10 µM: 100%
NF-κB
  pIC50: 5.98

## COc1cccc(C2=NN(Cc3cccnc3)c3nnc(C)n3-c3sc(C)c(C)c32)c1 [Example 75, 4-(3-methoxyphenyl)-2,3,9-trimethyl-6-(pyridin-3-ylmethyl)-6H-thieno[2,3-e][1,2,4]triazolo[3,4-c][1,2,4]triazepine]
[1]
  inhibition at 10 µM: 100%
NF-κB
  pIC50: 5.72

## Cc1sc2c(c1C)C(c1ccc(Cl)cc1)=NN(Cc1cccnc1[N+](=O)[O-])c1nnc(C)n1-2 [Example 80, 4-(4-chlorophenyl)-2,3,9-trimethyl-6-((2-nitropyridin-3-yl)methyl)-6H-thieno[2,3-e][1,2,4]triazolo[3,4-c][1,2,4]triazepine]
[1]
  inhibition at 10 µM: 100%
NF-κB
  pIC50: 5.95

## Cc1sc2c(c1C)C(c1ccccc1)=NNc1nnc(C)n1-2 [Example 27, 2,3,9-trimethyl-4-phenyl-6H-thieno[2,3-e][1,2,4]triazolo[3,4-c][1,2,4]triazepine]
[1]
  inhibition at 10 µM: 101%
NF-κB
  pIC50: 5.51

## COc1cccc(CN2N=C(c3ccc(Cl)cc3)c3ccsc3-n3c(C)nnc32)c1 [Example 64, 4-(4-chlorophenyl)-6-(3-methoxybenzyl)-9-methyl-6H-thieno[2,3-e][1,2,4]triazolo[3,4-c][1,2,4]triazepine]
[1]
  inhibition at 10 µM: 100%
NF-κB
  pIC50: 5.26

## COc1ccccc1CN1N=C(c2ccc(Cl)cc2)c2c(sc(C)c2C)-n2c(C)nnc21 [Example 34, 4-(4-chlorophenyl)-6-(2-methoxybenzyl)-2,3,9-trimethyl-6H-thieno[2,3-e][1,2,4]triazolo[3,4-c][1,2,4]triazepine]
[1]
  inhibition at 10 µM: 100%
NF-κB
  pIC50: 6.21

## Cc1sc2c(c1C)C(c1ccc(Cl)cc1)=NN(Cc1ccccc1F)c1nnc(C)n1-2 [Example 8, 4-(4-chlorophenyl)-6-(2-fluorobenzyl)-2,3,9-trimethyl-6H-thieno[2,3-e][1,2,4]triazolo[3,4-c][1,2,4]triazepine]
[1]
  inhibition at 10 µM: 100%
NF-κB
  pIC50: 6.98

## COc1ncc(F)cc1CN1N=C(c2ccc(Cl)cc2)c2c(sc(C)c2C)-n2c(C)nnc21 [Example 89, 4-(4-chlorophenyl)-6-((5-fluoro-2-methoxypyridin-3-yl)methyl)-2,3,9-trimethyl-6H-thieno[2,3-e][1,2,4]triazolo[3,4-c][1,2,4]triazepine]
[1]
  inhibition at 10 µM: 100%
NF-κB
  pIC50: 6.26

## COc1ccncc1CN1N=C(c2ccc(Cl)cc2)c2c(sc(C)c2C)-n2c(C)nnc21 [Example 51, 4-(4-chlorophenyl)-6-((4-methoxypyridin-3-yl)methyl)-2,3,9-trimethyl-6H-thieno[2,3-e][1,2,4]triazolo[3,4-c][1,2,4]triazepine]
[1]
  inhibition at 10 µM: 100%
NF-κB
  pIC50: 6.58

## COc1cccc(CN2N=C(c3ccc(Cl)cc3)c3c(sc(C)c3C)-n3c(C)nnc32)n1 [Example 46, 4-(4-chlorophenyl)-6-((6-methoxypyridin-2-yl)methyl)-2,3,9-trimethyl-6H-thieno[2,3-e][1,2,4]triazolo[3,4-c][1,2,4]triazepine]
[1]
  inhibition at 10 µM: 100%
NF-κB
  pIC50: 6.17

## Cc1sc2c(c1C)C(c1ccc(Cl)cc1)=NN(Cc1ccc(C(C)(C)C)cc1)c1nnc(C)n1-2 [Example 7, 6-(4-(tert-butyl)benzyl)-4-(4-chlorophenyl)-2,3,9-trimethyl-6H-thieno[2,3-e][1,2,4]triazolo[3,4-c][1,2,4]triazepine]
[1]
  inhibition at 10 µM: 99.8%
NF-κB
  pIC50: 6.13

## Cc1sc2c(c1C)C(c1ccccc1)=NN(Cc1cccnc1F)c1nnc(C)n1-2 [Example 90, 6-((2-fluoropyridin-3-yl)methyl)-2,3,9-trimethyl-4-phenyl-6H-thieno[2,3-e][1,2,4]triazolo[3,4-c][1,2,4]triazepine]
[1]
  inhibition at 10 µM: 100%
NF-κB
  pIC50: 6.53

## Cc1sc2c(c1C)C(c1ccc(Cl)cc1)=NN(Cc1cncc(Cl)c1)c1nnc(C)n1-2 [Example 39, 4-(4-chlorophenyl)-6-((5-chloropyridin-3-yl)methyl)-2,3,9-trimethyl-6H-thieno[2,3-e][1,2,4]triazolo[3,4-c][1,2,4]triazepine]
[1]
  inhibition at 10 µM: 100%
NF-κB
  pIC50: 6.21

## Cc1sc2c(c1C)C(c1ccc(Cl)cc1)=NN(Cc1ccc(F)nc1)c1nnc(C)n1-2 [Example 26, 4-(4-chlorophenyl)-6-((6-fluoropyridin-3-yl)methyl)-2,3,9-trimethyl-6H-thieno[2,3-e][1,2,4]triazolo[3,4-c][1,2,4]triazepine]
[1]
  inhibition at 10 µM: 100%
NF-κB
  pIC50: 7.91

## Cc1sc2c(c1C)C(c1ccc(Cl)cc1)=NN(CCc1c[nH]c3ccccc13)c1nnc(C)n1-2 [Example 44, 6-(2-(1H-indol-3-yl)ethyl)-4-(4-chlorophenyl)-2,3,9-trimethyl-6H-thieno[2,3-e][1,2,4]triazolo[3,4-c][1,2,4]triazepine]
[1]
  inhibition at 10 µM: 99.3%
NF-κB
  pIC50: 5.01

## Cc1sc2c(c1C)C(c1ccc(Cl)cc1)=NN(Cc1cccnc1C(F)(F)F)c1nnc(C)n1-2 [Example 78, 4-(4-chlorophenyl)-2,3,9-trimethyl-6-((2-(trifluoromethyl)pyridin-3-yl)methyl)-6H-thieno[2,3-e][1,2,4]triazolo[3,4-c][1,2,4]triazepine]
[1]
  inhibition at 10 µM: 100%
NF-κB
  pIC50: 5.90

## Cc1sc2c(c1C)C(c1ccc(Cl)cc1)=NN(Cc1cccc(O)c1)c1nnc(C)n1-2 [Example 53, 3-((4-(4-chlorophenyl)-2,3,9-trimethyl-6H-thieno[2,3-e][1,2,4]triazolo[3,4-c][1,2,4]triazepin-6-yl)methyl)phenol]
[1]
  inhibition at 10 µM: 100%
NF-κB
  pIC50: 5.53

## Cc1sc2c(c1C)C(c1ccc(Cl)cc1)=NN(Cc1ccccc1Cl)c1nnc(C)n1-2 [Example 10, 6-(2-chlorobenzyl)-4-(4-chlorophenyl)-2,3,9-trimethyl-6H-thieno[2,3-e][1,2,4]triazolo[3,4-c][1,2,4]triazepine]
[1]
  inhibition at 10 µM: 100%
NF-κB
  pIC50: 6.72

## Cc1sc2c(c1C)C(c1ccc(Cl)cc1)=NN(Cc1cccc(Cl)c1)c1nnc(C)n1-2 [Example 16, 6-(3-chlorobenzyl)-4-(4-chlorophenyl)-2,3,9-trimethyl-6H-thieno[2,3-e][1,2,4]triazolo[3,4-c][1,2,4]triazepine]
[1]
  inhibition at 10 µM: 100%
NF-κB
  pIC50: 7.11

## COc1ccc(CN2N=C(c3ccc(Cl)cc3)c3c(sc(C)c3C)-n3c(C)nnc32)cn1 [Example 50, 4-(4-chlorophenyl)-6-((6-methoxypyridin-3-yl)methyl)-2,3,9-trimethyl-6H-thieno[2,3-e][1,2,4]triazolo[3,4-c][1,2,4]triazepine]
[1]
  inhibition at 10 µM: 100%
NF-κB
  pIC50: 6.45
